# Laboratory results: US20100086931A1, “METHOD FOR ASSAYING ACTION OF ANTITUMOR AGENT USING DECREASE IN GENE EXPRESSION LEVEL AS INDEX” (Eisai R&D Management Co., Ltd., priority 2007, published 2010)
# Test system: peripheral blood mononuclear cells (PBMC)
# Experiment: qPCR (TaqMan) measurement of mRNA expression in PBMC treated with compound A
# Assay type: cell-based, human
# Conditions: untreated cells = 1, corrected by 18S rRNA
# From the text: Since it is not easy to obtain a cancer tissue clinically, the measurement of the marker in hemocytes readily obtainable in peripheral blood would be more useful. Specifically peripheral blood was taken from three normal individuals (volunteers) and peripheral blood mononuclear cells were purified and treated with compound A, followed by measurement of change in expression of the gene (mRNA) by qPCR.
# RNA samples were first prepared in accordance with the steps described in Example 2 (1) and (2).
# Subsequently RNA was prepared to 30 ng/μl and cDNA was synthesized by using TaqMan Reverse Transcription Reagents (Applied Biosystems). The expression level of SLC25A19, TRAPPC4, GTF2H1, Id1, EDN1, ZCCHC6, HNRPA2B1, and HSPA9B was amplified with TaqMan Gene Expression Assays (catalog numbers below) (Applied Biosystems) as a probe by using TaqMan Universal PCR Master Mix (Applied Biosystems).
# Reagents were prepared in accordance with the protocol, and measurement was carried out with ABI7900 (Applied Biosystems). Measured values were corrected by using the expression level of 18S rRNA (Hs99999901_s1, Applied Biosystems) as an internal control. The expression level of each gene was calculated with the expression level in the cells untreated with compound A as 1. […] In Table 3, for each gene evaluated, abbreviated name (Gene Symbol), accession number (Accession), alias name (Synonym), gene name (Gene Name), and the expression level upon treatment with varied concentration of E7107 (E7107 (nM)) were respectively shown.
smiles,measurement,setting,value
"CCC(O)C(C)C1OC1CC(C)(O)/C=C/C=C(\C)C1OC(=O)CC(O)CCC(C)(O)C(OC(=O)N2CCN(C3CCCCCC3)CC2)/C=C/C1C (centres unmarked) [E7107, (8E,12E,14E)-7-((4-Cycloheptylpiperazin-1-yl)carbonyl)oxy-3,6,16,21-tetrahydroxy-6,10,12,16,20-pentamethyl-18,19-epoxytricosa-8,12,14-trien-11-olide]",EDN1 mRNA expression level (qPCR),3 nM,0.45
same,GTF2H1 mRNA expression level (qPCR),3 nM,0.22
same,HNRPA2B1 mRNA expression level (qPCR),3 nM,0.48
same,HSPA9 mRNA expression level (qPCR),3 nM,0.39
same,ID1 mRNA expression level (qPCR),3 nM,0.5
same,SLC25A19 mRNA expression level (qPCR),3 nM,0.11
same,TRAPPC4 mRNA expression level (qPCR),3 nM,0.12
same,ZCCHC8 mRNA expression level (qPCR),3 nM,0.49
same,EDN1 mRNA expression level (qPCR),10 nM,0.2
same,GTF2H1 mRNA expression level (qPCR),10 nM,0.07
same,HNRPA2B1 mRNA expression level (qPCR),10 nM,0.29
same,HSPA9 mRNA expression level (qPCR),10 nM,0.26
same,ID1 mRNA expression level (qPCR),10 nM,0.15
same,SLC25A19 mRNA expression level (qPCR),10 nM,0.02
same,TRAPPC4 mRNA expression level (qPCR),10 nM,0.02
same,ZCCHC8 mRNA expression level (qPCR),10 nM,0.19
same,EDN1 mRNA expression level (qPCR),30 nM,0.11
same,GTF2H1 mRNA expression level (qPCR),30 nM,0.05
same,HNRPA2B1 mRNA expression level (qPCR),30 nM,0.24
same,HSPA9 mRNA expression level (qPCR),30 nM,0.17
same,ID1 mRNA expression level (qPCR),30 nM,0.09
same,SLC25A19 mRNA expression level (qPCR),30 nM,0.01
same,TRAPPC4 mRNA expression level (qPCR),30 nM,0.01
